{
  "source": "patent US8686016B2",
  "about": "“Schweinfurthins and uses thereof” (The United States of America, as represented by the …, priority 2009, dated 2014)",
  "key": {"[1]": {"system": "NF1-GRD expressing KR158 clones", "test": "Cell morphology / actin confocal microscopy, NF1-GRD KR158", "assay_type": "cell-based, mouse", "procedure": "Constructs and Transfections: NF1-GRD retroviral constructs were obtained from Indiana University. Cells transduced with the NF1-GRD construct or PMSCV empty vector control as previously described (Hiatt et al., J. Biol. Chem., 2001, 276:7240-5) were maintained in 1 μg/mL puromycin (Sigma).\n(§1) Cell Morphology Assays and Confocal Microscopy: To assay cytoskeleton morphology, KR158 cells, mouse primary astrocytes, KR158 clones expressing the NF1-GRD constructs, K14553 cells, and A549 were seeded to cover slips and allowed to reattach overnight. Cells were treated for 18 hours with either the indicated concentrations of SA, or the vehicle control DMSO. The cover slips were fixed in 3.7% paraformaldehyde, permeablized in 0.1% Triton-X100, and stained with Alexa Fluor 488-phalloidin (Invitrogen, Carlsbad, Calif., USA) to detect actin and cells were mounted in Prolong Antifade containing DAPI (Invitrogen) to stain nuclei. The cells were imaged on a LSM510 confocal microscope (Carl Zeiss Inc., Jena, Germany). For phospho-myosin light chain 2 (MLC) detection, cells were seeded to coverslips as described above. […] Actin structures were monitored continuously over a 16 hr period using confocal microscopy equipped with a growth chamber (37° C., humidified atmosphere and 5% CO2). […]"}, "[2]": {"system": "SF-295 human glioma cells", "test": "Clonogenic assay, SF-295", "assay_type": "cell-based", "details": "18 hrs treatment, colonies after one week", "procedure": "Clonogenic Assays: Monolayers of cells were treated for 18 hrs with SA, and then harvested, counted, and seeded to 35 mm dishes at a density of 1000 cells per dish. After one week, macroscopic colonies were stained with crystal violet (Sigma, St. Louis, Mo., USA) and counted."}, "MLC phosphorylation": {"system": "MLC phosphorylation", "test": "Phospho-myosin light chain immunostaining, MPNST cell lines", "assay_type": "cell-based, mouse", "procedure": "as §1, with “above. Cells were serum starved in 0.5% FBS and SA or DMSO vehicle control for 18 hours, and then pulsed with 10 ng/mL EGF (Invitrogen) for 5 min.” for “above.”"}, "[3]": {"system": "KR158 astrocytoma cells (Nf1−/−; Trp53−/−)", "test": "XTT cell proliferation assay, KR158", "assay_type": "cell-based, mouse", "procedure": "(§2) XTT Cell Proliferation Assay: Cells were seeded into 96-well plates at a density of 2,000 cells/well and allowed to reattach overnight. Cells were treated with SA, synthetic analogs, camptothecin (NCI Chemotherapeutics Repository, Md., USA), or DMSO control at the indicated concentrations continuously for 48 hours followed by assay in the 96-well plate for relative viable cell number using the dye […] (XTT) and a Wallac-Victor 2 plate reader (Perkin-Elmer, Waltham, Mass., USA). Absorbance was determined at 450 nm with 650 nm as a reference reading. Primary astrocytes were additionally assayed at a 96 hour time point."}, "A549 cells": {"system": "A549 cells", "test": "XTT cell proliferation assay, A549", "assay_type": "cell-based, human", "details": "48 hours", "procedure": "as §2"}, "KR158 cells": {"system": "KR158 cells", "test": "MultiTox-Fluor Multiplex Cytotoxicity Assay", "assay_type": "cell-based, mouse", "details": "48 hrs continuous treatment", "procedure": "Cytotoxicity Assay: The MultiTox-Fluor Multiplex Cytotoxicity Assay (Promega, Madison, Wis., USA) was used according to manufacturer instructions. Briefly, KR158 cells were harvested and seeded 2,500 cells/well in a black walled 96-well plate (Corning, Lowell, Mass., USA). Cells were treated with SA or DMSO control at the indicated concentrations continuously for 48 hours followed by addition of the fluorescent substrates from the assay kit. The GF-AFC Substrate enters live cells where it is cleaved by the live-cell protease to release AFC. The bis-AAF-R110 substrate cannot enter live cells but instead is be cleaved by the dead-cell protease activity to release R110."}},
  "note": "“Also recorded” adds a separate entry of the source.",
  "data": [
    {"smiles": "CC(C)=CCC/C(C)=C/Cc1c(O)cc(/C=C/c2cc(O)c3c(c2)C[C@@H]2C(C)(C)[C@H](O)[C@H](O)C[C@@]2(C)O3)cc1O", "note": "[SA, Schweinfurthin A]", "values": [
      {"measurement": "actin structures", "setting": "[1]", "value": "did not change"},
      {"measurement": "colony growth", "setting": "[2]", "value": "inhibited; also recorded: dramatically restricted"},
      {"measurement": "MLC phosphorylation", "setting": "MLC phosphorylation", "value": "reduced MLC phosphorylation"},
      {"measurement": "inhibition of proliferation (percent viability versus control)", "setting": "[3]; 48 hours, XTT", "value": "highly active; also recorded: sensitive; also recorded: inhibited both the KR158 and SF-295 cell lines in a dose dependent manner"},
      {"measurement": "GI50", "setting": "[3]; Mus musculus, KR158, Nf1-mutant astrocytoma cells", "value": 10, "unit": "nM"},
      {"measurement": "inhibition of proliferation (percent viability versus control)", "setting": "A549 cells", "value": "does not inhibit; also recorded: no apparent effect"},
      {"measurement": "cell killing (dead-cell protease activity)", "setting": "KR158 cells", "value": "dose dependent increase of dead-cell protease activity; also recorded: dose dependent increase in cell killing"}
    ]}
  ]
}
